The record followed here is paper PMC12281424, “A Rac-specific competitive inhibitor of guanine nucleotide binding reduces metastasis in triple-negative breast cancer” (Cell Reports Medicine, 2025).

One assay concerns the target TSSK2(h) (Homo sapiens, UniProt Q96PF2). Kind of assay: Kinase Profiler. Format: biochemical.
In another assay the target is Tie2(R849W)(h) (Homo sapiens, UniProt Q02763, R849W). Kind of assay: Kinase Profiler. Format: biochemical.
The target in another assay is CaMKIγ(h) (Homo sapiens, UniProt Q96NX5). Kind of assay: Kinase Profiler. The assay is classed as biochemical.
In another assay the target is Adenosine A1 (Homo sapiens, UniProt P30542). Kind of assay: Safety screen. Format: binding.
For the next assay, the target named is RHOA (Homo sapiens, UniProt P61586). The assay can be described thus: GEF-stimulated nucleotide exchange. Format: biochemical. Details: Full-length RAC2, RHOG, RHOA and CDC42 were purified as previously described; made in house; p115RhoGEF DH-PH in insect cells (Sf21). To be noted: 10^-5 M. An excerpt: Figure 4 A41 selectively impairs RAC protein activation (A) Representative surface plasmon resonance (SPR) sensograms of binding of immobilized RHOA or CDC42 with indicated increasing concentrations of A41 (N > 3). (B) Effect of A41 on GEF-stimulated RAC2, RHOG, RHOA, and CDC42 nucleotide exchange. […] Kobs is expressed as mean ± SEM. ∗p < 0.001 vs. control. (C) Effect of A41 on RAC1 G30S activation. […] The GEF TRIO was used to induce nucleotide exchange (N = 3). Data are expressed as mean ± SEM. (D) Immunoblot analysis and associated quantification of RAC-GTP level and total RAC expression in NIH-3T3 fibroblasts expressing RAC wild-type (RAC1 WT) or RAC1 oncomutants (RAC1 P29S and RAC1b) in the absence (Ctrl) and presence of A41 (10 μM). RAC activation was measured as the ratio of RAC-GTP to total RAC and expressed relative to Ctrl condition. Data are presented as mean ± SEM. ∗∗∗p < 0.001 vs. controls.
Full-length RAC1 carrying a 6xHis tag in C-terminus was purified as previously described.[64] […] Specific exchange activity toward RHOA determined by fluorescence kinetics is 0.04 s^−1M^−1.
Nucleotide exchange kinetics were measured by recording the increase in fluorescence following the association of mant-GTP on GDP-bound RHO protein or the decay in fluorescence following the dissociation of mant-GDP pre-loaded onto the RHO protein (λEx = 360 nm, λEm = 440 nm) as previously described.[39] […]

Another assay concerns the target PrKX(h) (Homo sapiens, UniProt P51817). The assay can be described thus: Kinase Profiler. Format: biochemical.
The target of a further assay is Flt4(h) (Homo sapiens, UniProt P35916). The assay can be described thus: Kinase Profiler. Format: biochemical.
Sequence of Flt4(h) (P35916 25-1363): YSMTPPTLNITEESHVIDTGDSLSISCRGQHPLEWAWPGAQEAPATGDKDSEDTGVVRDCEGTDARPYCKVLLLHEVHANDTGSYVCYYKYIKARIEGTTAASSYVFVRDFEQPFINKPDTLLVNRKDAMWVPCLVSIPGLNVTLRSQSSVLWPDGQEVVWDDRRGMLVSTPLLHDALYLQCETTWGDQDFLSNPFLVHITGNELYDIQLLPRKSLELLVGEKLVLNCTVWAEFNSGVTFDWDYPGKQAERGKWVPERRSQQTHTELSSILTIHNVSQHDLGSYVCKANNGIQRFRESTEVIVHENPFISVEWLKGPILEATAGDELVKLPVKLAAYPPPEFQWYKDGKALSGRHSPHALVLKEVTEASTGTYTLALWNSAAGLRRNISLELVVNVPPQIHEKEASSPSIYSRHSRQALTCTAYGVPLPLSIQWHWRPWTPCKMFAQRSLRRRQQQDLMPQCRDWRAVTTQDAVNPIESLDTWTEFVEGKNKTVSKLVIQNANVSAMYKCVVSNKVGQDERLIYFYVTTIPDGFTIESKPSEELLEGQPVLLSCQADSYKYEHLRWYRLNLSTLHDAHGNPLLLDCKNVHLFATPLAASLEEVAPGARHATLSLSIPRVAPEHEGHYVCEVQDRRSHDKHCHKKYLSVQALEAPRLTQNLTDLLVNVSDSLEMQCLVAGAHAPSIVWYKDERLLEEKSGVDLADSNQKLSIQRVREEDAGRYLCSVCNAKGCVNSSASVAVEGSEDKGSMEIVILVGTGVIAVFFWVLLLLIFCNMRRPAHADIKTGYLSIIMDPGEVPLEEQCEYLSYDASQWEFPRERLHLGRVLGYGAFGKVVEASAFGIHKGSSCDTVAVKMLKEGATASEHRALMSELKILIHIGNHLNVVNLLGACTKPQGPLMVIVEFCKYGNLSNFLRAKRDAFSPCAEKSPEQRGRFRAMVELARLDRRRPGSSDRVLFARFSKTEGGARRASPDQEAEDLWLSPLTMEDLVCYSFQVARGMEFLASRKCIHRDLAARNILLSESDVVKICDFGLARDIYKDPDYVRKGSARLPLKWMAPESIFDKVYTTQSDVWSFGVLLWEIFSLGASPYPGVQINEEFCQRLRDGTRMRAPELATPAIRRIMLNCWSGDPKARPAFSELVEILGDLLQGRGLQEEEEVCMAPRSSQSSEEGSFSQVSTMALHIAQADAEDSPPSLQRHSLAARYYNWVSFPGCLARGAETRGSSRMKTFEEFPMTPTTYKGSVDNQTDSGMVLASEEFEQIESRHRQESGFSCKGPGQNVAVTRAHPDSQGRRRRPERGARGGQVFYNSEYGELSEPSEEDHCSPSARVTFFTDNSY

Sequence of RHOA (P61586 whole entry): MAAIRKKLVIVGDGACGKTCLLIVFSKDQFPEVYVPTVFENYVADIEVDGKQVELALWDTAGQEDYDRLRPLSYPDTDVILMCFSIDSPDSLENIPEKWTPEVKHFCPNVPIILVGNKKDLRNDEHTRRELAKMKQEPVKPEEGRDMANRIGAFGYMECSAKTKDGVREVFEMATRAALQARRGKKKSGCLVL
Sequence of PrKX(h) (P51817 whole entry): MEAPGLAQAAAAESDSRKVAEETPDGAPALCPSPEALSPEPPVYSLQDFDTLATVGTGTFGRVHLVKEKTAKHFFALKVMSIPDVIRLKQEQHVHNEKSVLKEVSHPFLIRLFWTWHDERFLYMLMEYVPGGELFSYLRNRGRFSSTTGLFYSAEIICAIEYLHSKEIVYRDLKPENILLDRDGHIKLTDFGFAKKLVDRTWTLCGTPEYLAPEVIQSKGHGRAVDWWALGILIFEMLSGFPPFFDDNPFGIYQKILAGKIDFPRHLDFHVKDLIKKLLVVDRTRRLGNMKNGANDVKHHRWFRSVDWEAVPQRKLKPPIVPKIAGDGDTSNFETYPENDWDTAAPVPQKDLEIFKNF
Sequence of Tie2(R849W)(h) (Q02763 23-1124 R849W): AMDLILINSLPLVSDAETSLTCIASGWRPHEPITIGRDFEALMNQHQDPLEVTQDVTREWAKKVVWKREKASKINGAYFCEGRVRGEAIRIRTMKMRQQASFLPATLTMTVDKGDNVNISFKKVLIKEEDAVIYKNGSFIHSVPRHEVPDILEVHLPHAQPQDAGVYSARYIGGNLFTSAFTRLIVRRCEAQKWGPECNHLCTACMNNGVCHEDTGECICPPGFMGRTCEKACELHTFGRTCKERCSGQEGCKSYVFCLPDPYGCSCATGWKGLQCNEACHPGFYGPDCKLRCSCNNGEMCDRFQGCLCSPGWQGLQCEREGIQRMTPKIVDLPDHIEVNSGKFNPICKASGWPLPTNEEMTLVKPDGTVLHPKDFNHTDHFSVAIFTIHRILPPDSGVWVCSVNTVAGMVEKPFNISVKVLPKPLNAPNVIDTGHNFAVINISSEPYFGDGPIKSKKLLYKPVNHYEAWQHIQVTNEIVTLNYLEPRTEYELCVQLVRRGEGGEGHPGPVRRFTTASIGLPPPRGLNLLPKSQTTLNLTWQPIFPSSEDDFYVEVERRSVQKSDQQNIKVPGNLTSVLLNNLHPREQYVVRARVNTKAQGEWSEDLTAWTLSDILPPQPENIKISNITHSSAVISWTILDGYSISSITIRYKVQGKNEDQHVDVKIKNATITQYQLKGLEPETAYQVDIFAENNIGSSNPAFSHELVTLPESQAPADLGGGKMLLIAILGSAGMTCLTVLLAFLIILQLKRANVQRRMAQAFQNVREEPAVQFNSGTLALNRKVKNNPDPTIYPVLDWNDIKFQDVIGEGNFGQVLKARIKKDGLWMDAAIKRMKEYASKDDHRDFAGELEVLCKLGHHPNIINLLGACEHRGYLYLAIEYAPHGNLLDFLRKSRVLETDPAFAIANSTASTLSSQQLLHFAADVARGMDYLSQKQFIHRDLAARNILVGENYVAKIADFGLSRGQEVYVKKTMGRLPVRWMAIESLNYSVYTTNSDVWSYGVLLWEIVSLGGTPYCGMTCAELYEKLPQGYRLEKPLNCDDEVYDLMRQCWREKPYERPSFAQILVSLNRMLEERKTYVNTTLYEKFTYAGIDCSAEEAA
Sequence of TSSK2(h) (Q96PF2 whole entry): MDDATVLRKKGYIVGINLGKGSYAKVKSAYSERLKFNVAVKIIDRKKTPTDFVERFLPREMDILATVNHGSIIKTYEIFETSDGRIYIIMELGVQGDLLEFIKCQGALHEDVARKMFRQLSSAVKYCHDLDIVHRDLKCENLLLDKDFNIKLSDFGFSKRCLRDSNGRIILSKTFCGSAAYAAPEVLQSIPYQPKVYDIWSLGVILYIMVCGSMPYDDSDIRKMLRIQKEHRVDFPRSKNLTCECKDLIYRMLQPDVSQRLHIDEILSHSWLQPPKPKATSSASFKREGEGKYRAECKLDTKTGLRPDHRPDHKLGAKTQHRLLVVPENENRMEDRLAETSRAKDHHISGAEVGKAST
Sequence of CaMKIγ(h) (Q96NX5 whole entry): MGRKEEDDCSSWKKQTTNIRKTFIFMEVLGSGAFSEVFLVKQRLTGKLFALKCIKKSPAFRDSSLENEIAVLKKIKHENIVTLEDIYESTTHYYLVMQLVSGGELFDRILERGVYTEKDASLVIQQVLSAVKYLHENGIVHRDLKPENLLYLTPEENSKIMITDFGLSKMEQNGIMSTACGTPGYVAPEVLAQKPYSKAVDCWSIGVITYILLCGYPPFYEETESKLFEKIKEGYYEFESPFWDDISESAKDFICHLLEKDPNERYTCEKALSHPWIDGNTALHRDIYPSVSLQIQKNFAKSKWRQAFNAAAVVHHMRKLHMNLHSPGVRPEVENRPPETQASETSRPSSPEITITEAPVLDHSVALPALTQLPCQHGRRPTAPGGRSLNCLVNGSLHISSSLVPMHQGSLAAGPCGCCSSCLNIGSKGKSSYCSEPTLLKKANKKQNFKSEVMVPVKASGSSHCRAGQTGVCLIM
Sequence of Adenosine A1 (P30542 whole entry): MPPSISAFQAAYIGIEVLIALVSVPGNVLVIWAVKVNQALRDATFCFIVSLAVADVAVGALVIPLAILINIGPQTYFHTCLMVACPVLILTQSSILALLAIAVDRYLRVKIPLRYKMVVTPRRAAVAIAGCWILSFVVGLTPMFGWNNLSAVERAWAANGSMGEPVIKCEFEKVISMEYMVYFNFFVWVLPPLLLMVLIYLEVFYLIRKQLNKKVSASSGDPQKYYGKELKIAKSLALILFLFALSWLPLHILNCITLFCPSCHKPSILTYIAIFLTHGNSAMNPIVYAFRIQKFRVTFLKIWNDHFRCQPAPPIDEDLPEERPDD
Description for Adenosine A1: (§1) The kinase profiler was performed by the company Eurofins (Discovery, Panlab and Cerep).
Description for CaMKIγ(h): as §1
Description for Flt4(h): as §1
Description for PrKX(h): as §1
Description for TSSK2(h): as §1
Description for Tie2(R849W)(h): Blood cell counts, kinase profiler, safety screen, bacterial cytotoxicity, Ames, micronucleus assays were performed by the company Eurofins (France). The kinase profiler was performed by the company Eurofins (Discovery, Panlab and Cerep).

Turning to `COc1ccc(OC)c(NS(=O)(=O)c2ccc(NC(=O)CCSc3ccc(C)cc3)cc2)c1` [Compound A41], the “Activity(%)” value on TSSK2(h) is reported as 111%; at Tie2(R849W)(h), 101%; at CaMKIγ(h), 121%; on PrKX(h), 98%; at Flt4(h) it was 92%. Also, the “% inh.” value on Adenosine A1 was 2%. Moreover, on RHOA, the “activation of RHOA induced by p115RhoGEF DH-PH” value is listed as “did not change the activation”.
